These results are taken from patent publication US7390782B2, “Methods and products related to metabolic interactions in disease” (University of Vermont and State Agricultural College, priority 1998, dated 2008).

Assay [1] deals with L1210/DDP. As to the kind of experiment: Fas expression by flow cytometry (FITC anti-Fas over isotype). It counts as cell-based. As to conditions: for Fas expression: L1210 DDP, in the presence of staurosporine or ADRIAMYCIN
The procedure: (§1) 3. Fas Expression Increases as a Function of Glucose: We investigated the effect of increasing concentrations of glucoseon cell surface Fas expression. L1210 and L1210/DDP cells were cultured in glucose free RPMI media or in media supplemented with insulin and glucose for 16 hours. Intra- and extracellular Fas expression was determined by labeling the cells with FITC-conjugated anti-Fas antibodies (Pharmingen), or FITC-conjugated isotype control, then subtracting the fluorescence intensity of the isotype staining from Fas staining for each treatment group.
(§2) L1210, upper panels, and L1210/DDP cells, lower panels, were cultured in glucose free RPMI media, filled circles, or in media supplemented with insulin and glucose, squares, for 16 hours. Intra- and extracellular Fas expression was determined by labeling the cells with FITC-conjugated anti-Fas antibodies, or FITC-conjugated isotype control, then subtracting the fluorescence intensity of the isotype staining from Fas staining for each treatment group (FIG. 2). Results are presented as geometric mean fluorescence over background.
(§3) 4. […] We treated L1210 or L1210 DDP cells with the staurosporine, which inhibits protein kinase C and increases mitochondrial membrane potential, or an anti-cancer agent to which both cells are sensitive, ADRIAMYCIN™. Fas expression was increased or induced on both L1210 and L1210 DDP, respectively, in the presence of staurosporine or ADRIAMYCIN™ (FIG. 3). The L1210 DDP changed morphologically and began to divide rapidly, changes which appeared to correspond with a reversion back to the phenotype of the L1210 cells.
(§4) FIG. 23 is a graph depicting Sodium Acetate as a mitochondrial modifying agent. L1210 or L1210DDP cells were cultured in the presence of graded concentrations of sodium acetate in the medium. Cells were stained with Jo2.2, a fluorescein conjugated anti-Fas antibody, or an isotype control. Cell surface staining was measured flow cytometrically. The Percentage of mean fluorescence intensity over the isotype control was plotted.
On the technique in general: Flow cytometry measures light scatter and fluorescence of single cells or particles in a stream.

Assay [2] deals with L1210. The description is as above. The format is cell-based. The note with it: for Fas expression: in the presence of staurosporine or ADRIAMYCIN
As to the method:
as §1, §2, §3, §4

Assay [3] relates to resting B-cells from (NZB×NZW)F1 and (NZB×SWR)F1 mice. In words: cAMP in resting B-cells from autoimmune strains. It counts as cell-based. As to the method: Following the protocols as described in Newell, M K, et al. (Proc Natl Acad Sci, USA, 1993, 90:10459-10463) for resting B lymphocytes from normal mice, we isolated resting B-cells from spleens of (NZB×NZW)F1 and (NZB×SWR)F1 mice by Percoll gradient separation and treated the cells with antibodies to class II molecules, FIG. 12. Experiments utilized mice younger than 3 months of age. […] Resting (1.079<r<1.085) B-cells from normal; […], animals were treated for 10 min at 37° C. with stimuli indicated. Levels of cAMP were determined as described in FIG. 1. Means (and standard errors) from three experiments are shown for normal animals. The means from two experiments are shown for each of the F1 hybrid animals.

Assay [4] has the same test system. As to the kind of experiment: Apoptosis (DNA fragments) in resting B-cells from autoimmune strains. It counts as cell-based. The procedure:
We stimulated both resting and activated B-cells from (NZB×NZW)F1 and (NZB×SWR)F1 mice with antibodies to class II molecules. Young animals, prior to the development of lupus-like autoantibody and renal disease, were used in these studies. […] Agarose gel electrophoresis of DNA fragments from high density resting B-cells (1.079<r<1.085) was carried out as described in FIG. 2. Normalized areas produced by scanning densitometry on the gels shown above for normal; (NZB×SWR)F1; or (NZB×NZW)F1, animals. […] For normal animals, the mean and standard error of four experiments are shown. For the (NZB×NZW)F1 animals, representative data from one of two experiments is shown and for (NZB×SWR)F1 animals, a single experiment is shown. Because experiments were performed on different days it is impossible to compare background levels of apoptosis between strains; however, it should be noted that there is significant variability in background levels of apoptosis, with those for the (NZB×NZW)F1 animals apparently tending to be higher than for the other strains.

For assay [5], the system named is L1210/DDP. As to the kind of experiment: Methotrexate-induced death, flow cytometry and DNA fragment analysis. The format is cell-based. The note with it: 10^-8 M methotrexate, 24 hours. As to the method:
(§5) Additionally, L1210 and L1210/DDP cells were treated with 10−8 M methotrexate for 24 hours. […] The forward scatter low populations took up ethidium bromide differentially. The L1210 cells took up a moderate amount. […] This latter phenotype—loss in forward scatter and membrane permeability with no “DNA laddering”—is the hall mark of oncosis.

In assay [6] the test system is L1210. Described as above. It counts as cell-based. As to conditions: 10^-8 M methotrexate, 24 hours. As to the method: as §5
Assay [7] concerns splenic lymphocytes from C57BL/6, C57BL6.lpr and C57BL.gld. In words: Viability of splenic lymphocytes cultured with methotrexate. It counts as cell-based, mice. The note with it: Fas deficient lymphocytes; 5×10^-8 M methotrexate, 18 or 32 hours. As to the method:
8. Fas Deficient Lymphocytes are also drug resistant to methotrexate: We isolated splenic lymphocytes from aged-matched wild type C57BL/6 mice and C57BL6.lpr and C57BL.gld. Splenocytes from C57BL/6 lpr or gld animals were isolated, red cells depleted, and single cell suspensions prepared. Cells were cultured in the absence or presence of 5×10^−8 M methotrexate for 18 or 32 hours. Cells were harvested and viability was determined by flow cytometric analysis and confirmed with trypan blue exclusion.

For assay [8], the system named is B16 melanoma cells. As to conditions: increasing concentrations. As to the method: B16 cells were cultured in the in the presence of different concentrations of sodium acetate and Fas expression was measured.
The subject of assay [9] is B16 melanoma cells. The note with it: increasing concentrations. As to the method: FIG. 18 depicts the rates of glucose utilization and oxidation in B16 melanoma cells. Again cells were cultured in the presence of varying concentration of sodium acetate.
The source holds these as a separate data set.

A further assay relates to L1210DDP. As to conditions: FasL bearing cells over mock-transfectants. An excerpt: (§6) Cells cultured with acetate were loaded with 51 Cr and plated onto FasL bearing or mock transfected fibroblast to determine sensitivity to Fas-induced cell death. Results are reported as percent chromium release from cells in the presence of FasL bearing cells over mock-transfectants.

Assay [10] concerns L1210. The note with it: FasL bearing cells over mock-transfectants.
Description: as §6

A further assay relates to PC12 cells. In words: Cytofluorometric analysis of Fas, B7.1, B7.2 cell surface expression. The format is cell-based, Rat. As to conditions: 50 ng/ml. The procedure:
(§7) Cell Culture: Rat pheochromocytoma cell lines, including PC12, Trk and v-Crk cells were a kind gift from Dr. Raymond Birge. They were maintained in complete RPMI 1640 (GIBCO) supplemented with 7% heat inactivated fetal calf serum and 3% heat inactivated horse serum at 37° C. in a humidified incubator with 5% CO2. The PC12 transfectants were generated as described previously (Glassman et al., 1997, Hempstead et al., 1994). Cells were plated in 6 well culture plates at a concentration ranging from 2-8×10^6 cells/well, according to the cell type's growth kinetics, and 5 ml complete medium. NGF-7S from mouse submaxillary glands (Sigma Chemical Co.) or EGF, kindly provided by Dr. Raymond Birge, was added at a concentration of 50 ng/ml culture medium and the cells were incubated for 24 or 48 hours.
(§8) Cytofluorometric Analysis: Cells were harvested after a 10 minute incubation period on ice in order to diminish their adherence to the plastic culture flask. They were spun at 1210 rpm, for 7 minutes, resuspended in medium and counted after trypan blue staining. Equal numbers of cells were placed in 12×75 mm flow tubes (range: 0.1-1×10^6 cells/tube), washed in PBS and 5% FBS and stained at 4° C. The following stains were used: a) fluorescein isothiocyanate (FITC) hamster IgG isotype standard, b) FITC anti-mouse Fas, c) FITC anti-mouse CD80 (B7.1), d) phycoerythrin (PE) mouse IgG2b K isotype standard and e) PE anti-mouse CD86 (B7.2). All antibodies were obtained from Pharmingen.
(§9) After incubation on ice for 20 minutes, cells were washed, resuspended in PBS and 5% FCS and analyzed by flow cytometry (Becton Dickinson). Histogram plots were derived from dot plots gated on the live cell population according to the forward versus side scatter ratio (Cell Quest Program). The absolute Fas, B7.1 and B7.2 values presented on the graphs were obtained by subtracting the […]. Values were considered subjectively positive (+) if the difference was statistically significant (p<0.001) according to the applied Kilmogorov-Smirnov statistical analysis.

The subject of the next assay is TrkA cells. The description is as above. It counts as cell-based, Rat. As to conditions: Trk cells, 50 ng/ml. The procedure: as §7, §8, §9
The subject of a further assay is v-Crk cells. The description is as above. The format is cell-based, Rat. The procedure:
as §7, §8, §9

Entries after “also recorded” stand apart in the source; their conditions may differ.

For the compound `COc1cccc2c1C(=O)c1c(O)c3c(c(O)c1C2=O)C[C@@](O)(C(=O)CO)C[C@@H]3O[C@H]1C[C@H](N)[C@H](O)[C@H](C)O1` [ADRIAMYCIN™], the Fas expression entry in the assay with L1210/DDP [1] is reported as “induced”; with L1210 [2] it was “increased”.
On to `CC(C)NCC(O)c1ccc(O)c(O)c1` (stereo not shown) [isoproterenol], for which the “intracellular cAMP response” value in assay [3] was “normal”. The values for the apoptosis result in assay [4] ((NZB×NZW)F1 B-cells) and in assay [4] (B-cells from (NZB×SWR)F1 mice) were “minimal evidence of apoptosis” and “intermediate level”, respectively.
On to `CN(Cc1cnc2nc(N)nc(N)c2n1)c1ccc(C(=O)N[C@@H](CCC(=O)O)C(=O)O)cc1` [methotrexate], for which the “DNA fragments (laddering)” value is on record as “did not” in the assay on L1210/DDP [5] and “produced a ladder of nucleosome sized fragments indicative of apoptosis” in the assay on L1210 [6]. Further, the “susceptibility to methotrexate-induced apoptosis” value in assay [7] is reported as “decreased susceptibility”.
As to `CC(=O)[O-].[Na+]` [sodium acetate], the “cell surface Fas expression” value with L1210/DDP [1] (L1210DDP, graded concentrations of sodium acetate in the medium) is given as “increases cell surface Fas expression”; with L1210 [2] (graded concentrations of sodium acetate in the medium), “increases cell surface Fas expression”. For the same compound, the “levels of cell surface Fas” value in the assay on B16 melanoma cells [8] (non-permeabilized B16 cells) is “increased”. Also, the “levels of intracellular Fas” value in the assay on B16 melanoma cells [8] (permeabilized B16 cells) is listed as “declined”. In the assay on B16 melanoma cells [9], the glucose oxidation entry is “decreased”. Also, in the assay on B16 melanoma cells [9], the glucose utilization result was “decreased”. For the same compound, the “susceptibility to Fas-dependent cell death (percent chromium release)” value in the assay on L1210DDP and in the assay with L1210 [10] was “results in susceptibility to Fas-dependent cell death” in each case.
As for `CN[C@@H]1C[C@H]2O[C@@](C)([C@@H]1OC)n1c3ccccc3c3c4c(c5c6ccccc6n2c5c31)C(=O)NC4` [staurosporine], the “Fas expression and susceptibility to drug-induced apoptosis” value in the assay with L1210/DDP [1] (L1210 DDP cells treated with staurosporin) was “restores Fas expression and susceptibility to drug-induced apoptosis”. Further, the values for the Fas expression entry in the assay with L1210/DDP [1] and in the assay on L1210 [2] were “induced” and “increased”, respectively.
In the case of “EGF: EGF, kindly provided by Dr. Raymond Birge”, the “B7.1 cell surface expression” value with PC12 cells (stimulation 24 hours) is reported as “significantly lowers”; in the assay with PC12 cells (stimulation 48 hours) it was “reestablishes the basal values”; with TrkA cells (stimulation 24 hours) it was “lowered”; in the assay on TrkA cells (stimulation 48 hours), “reestablished”; in the assay on v-Crk cells (50 ng/ml, 24 and 48 hours of culture), “significantly increases B7.1 expression”. Besides, the “Fas cell surface expression” value was “downregulates Fas expression” with PC12 cells (stimulation 24 hours); “totally abrogates Fas expression” with PC12 cells (stimulation 48 hours); “downregulates Fas expression” with TrkA cells (stimulation 24 hours); “totally abrogates Fas expression” in the assay with TrkA cells (stimulation 48 hours); “significantly up-regulates Fas expression; also recorded: increases three-fold” with v-Crk cells (50 ng/ml, stimulation 24 hours); “down-regulated and abrogated” in the assay with v-Crk cells (50 ng/ml, stimulation 48 hours). Moreover, the “B7.2 cell surface expression” value in the assay on PC12 cells (stimulation 48 hours) is “up-regulates B7.2 expression”; in the assay with TrkA cells (stimulation 48 hours), “most significant”; in the assay on v-Crk cells (50 ng/ml, stimulation 48 hours), “significant induction”; in the assay with v-Crk cells (after withdrawal), “again undetectable”.
